The nature of series [1]: Displacement of [125I]-somatostatin-14 from somatostatin receptor in rat AR42J cells. It is filed as cell-based. Particulars: ar-42j. On the technique in general: Loss of bound radioactivity is the signal in a displacement assay; it reports binding, not function.
Series [2] is described as follows: Displacement of [111In]-DTPA-octreotide from somatostatin receptor in rat AR42J cells. It is filed as cell-based. To be noted: ar-42j.
Series [3] is described as follows: Partition coefficient, log D of the compound. It is filed as physicochemical. To be noted: octanol/water.

In ChEMBL document CHEMBL1770124, “Synthesis and in vitro evaluation of [18F]fluoroethyl triazole labelled [Tyr3]octreotate analogues using click chemistry” (Bioorg Med Chem Lett, 2011) one finds IC50 and logD data, which are given here for eleven molecules.

Where a SMILES comes first, the peptide text is derived from it. Bridges are numbered along the chain shown (N, C = ends). [ ]: non-standard residue; d: D form. The star is where a group is joined. Threoninol(2S,3R) = C[C@@H](O)[C@H](CO)N*

With `C[C@@H](O)[C@H](CO)NC(=O)[C@@H]1CSSC[C@H](NC(=O)[C@H](N)Cc2ccccc2)C(=O)N[C@@H](Cc2ccccc2)C(=O)N[C@H](Cc2c[nH]c3ccccc23)C(=O)N[C@@H](CCCCN)C(=O)N[C@@H]([C@@H](C)O)C(=O)N1` (H-[dF]CF[dW]KTC-{Threoninol(2S,3R)}; disulfide 2-7), the IC50 in series [1] is 0.0147 µM.

Take `C#CCCC(=O)NCCOCCOCCOCCOCCOCCOCCC(=O)N[C@H](Cc1ccccc1)C(=O)N[C@H]1CSSC[C@@H](C(=O)N[C@H](C(=O)O)[C@@H](C)O)NC(=O)[C@H]([C@@H](C)O)NC(=O)[C@H](CCCCN)NC(=O)[C@@H](Cc2c[nH]c3ccccc23)NC(=O)[C@H](Cc2ccc(O)cc2)NC1=O`: the IC50 in series [2] is 0.0051 µM.

`C#CCCC(=O)N[C@H](Cc1ccccc1)C(=O)N[C@H]1CSSC[C@@H](C(=O)N[C@H](C(=O)O)[C@@H](C)O)NC(=O)[C@H]([C@@H](C)O)NC(=O)[C@H](CCCCN)NC(=O)[C@@H](Cc2c[nH]c3ccccc23)NC(=O)[C@H](Cc2ccc(O)cc2)NC1=O` showed an IC50 in series [2] of 0.0018 µM.

On to `C[C@@H](O)[C@@H]1NC(=O)[C@@H](NC(=O)[C@@H](Cc2cc3ccccc3[nH]2)NC(=O)CNC(=O)CCNC(=O)c2cn(CC[18F])nn2)CSSC[C@@H](C(=O)N[C@@H](CCCCN)C(=O)O)NC(=O)[C@H](Cc2ccc(O)cc2)NC(=O)[C@H]([C@@H](C)O)NC(=O)[C@@H](Cc2ccccc2)NC1=O`, for which the IC50 in series [2] is > 10000 µM. Also, in series [3], the logD is -1.14.

As to `C[C@@H](O)[C@H](NC(=O)[C@@H]1CSSC[C@H](NC(=O)[C@@H](Cc2ccccc2)NC(=O)CCOCCOCCOCCOCCOCCOCCNC(=O)CCc2cn(CC[18F])nn2)C(=O)N[C@@H](Cc2ccc(O)cc2)C(=O)N[C@H](Cc2c[nH]c3ccccc23)C(=O)N[C@@H](CCCCN)C(=O)N[C@@H]([C@@H](C)O)C(=O)N1)C(=O)O`, in series [2], the IC50 turned out to be 0.0132 µM. Further, in series [3], the logD was -2.77.

In series [2], `C[C@@H](O)[C@H](NC(=O)[C@@H]1CSSC[C@H](NC(=O)[C@@H](Cc2ccccc2)NC(=O)CCOCCOCCOCCOCCOCCOCCNC(=O)CNC(=O)c2cn(CC[18F])nn2)C(=O)N[C@@H](Cc2ccc(O)cc2)C(=O)N[C@H](Cc2c[nH]c3ccccc23)C(=O)N[C@@H](CCCCN)C(=O)N[C@@H]([C@@H](C)O)C(=O)N1)C(=O)O` registered an IC50 of 0.0108 µM. Besides, in series [3], the pH-dependent lipophilicity (logD) is -2.68.

`C#CC(=O)NCC(=O)NCCOCCOCCOCCOCCOCCOCCC(=O)N[C@H](Cc1ccccc1)C(=O)N[C@H]1CSSC[C@@H](C(=O)N[C@H](C(=O)O)[C@@H](C)O)NC(=O)[C@H]([C@@H](C)O)NC(=O)[C@H](CCCCN)NC(=O)[C@@H](Cc2c[nH]c3ccccc23)NC(=O)[C@H](Cc2ccc(O)cc2)NC1=O` had an IC50 in series [2] of 0.00523 µM.

`C#CC(=O)NCCC(=O)NCC(=O)N[C@H](Cc1ccccc1)C(=O)N[C@H]1CSSC[C@@H](C(=O)N[C@H](C(=O)O)[C@@H](C)O)NC(=O)[C@H]([C@@H](C)O)NC(=O)[C@H](CCCCN)NC(=O)[C@@H](Cc2c[nH]c3ccccc23)NC(=O)[C@H](Cc2ccc(O)cc2)NC1=O` came in with an IC50 in series [2] of 0.001 µM.

Molecule `C#CC(=O)NCC(=O)N[C@H](Cc1ccccc1)C(=O)N[C@H]1CSSC[C@@H](C(=O)N[C@H](C(=O)O)[C@@H](C)O)NC(=O)[C@H]([C@@H](C)O)NC(=O)[C@H](CCCCN)NC(=O)[C@@H](Cc2c[nH]c3ccccc23)NC(=O)[C@H](Cc2ccc(O)cc2)NC1=O` showed a concentration for half-maximal inhibition (IC50) in series [2] of 0.0014 µM.

For `C[C@@H](O)[C@H](NC(=O)[C@@H]1CSSC[C@H](NC(=O)[C@@H](Cc2ccccc2)NC(=O)CNC(=O)c2cn(CC[18F])nn2)C(=O)N[C@@H](Cc2ccc(O)cc2)C(=O)N[C@H](Cc2c[nH]c3ccccc23)C(=O)N[C@@H](CCCCN)C(=O)N[C@@H]([C@@H](C)O)C(=O)N1)C(=O)O`, in series [2], the IC50 was found to be 0.004 µM. Moreover, the log distribution coefficient (logD) in series [3] is -1.83.

The molecule `C[C@@H](O)[C@H](NC(=O)[C@@H]1CSSC[C@H](NC(=O)[C@@H](Cc2ccccc2)NC(=O)CCc2cn(CC[18F])nn2)C(=O)N[C@@H](Cc2ccc(O)cc2)C(=O)N[C@H](Cc2c[nH]c3ccccc23)C(=O)N[C@@H](CCCCN)C(=O)N[C@@H]([C@@H](C)O)C(=O)N1)C(=O)O` came in with an IC50 in series [2] of 0.0029 µM. For the same molecule, in series [3], the logD was -1.5.

What is called IC50 is the concentration that inhibits the measured activity by half. The low end stands for greater potency in that assay, the high end for weaker potency in that assay. By logD is commonly meant lipophilicity at a set pH, counting ionised and neutral species.
